According to publication PMC10739574 (Bioconjugate Chemistry, 2023):
Values belong to the compound of their own block, whether it stands above or below them.

Target: Recombinant FKBP12 (Homo sapiens, UniProt P62942)
Test: Pure protein target engagement assay
Format: binding

Sequence of Recombinant FKBP12 (P62942 whole entry): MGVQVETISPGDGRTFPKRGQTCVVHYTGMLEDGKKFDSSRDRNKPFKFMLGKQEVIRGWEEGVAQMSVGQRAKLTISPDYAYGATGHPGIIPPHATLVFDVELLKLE

SMILES: CO[C@H]1C[C@@H]2CC[C@@H](C)[C@@](O)(O2)C(=O)C(=O)N2CCCC[C@H]2C(=O)O[C@H]([C@H](C)C[C@@H]2CC[C@@H](O)[C@H](OC)C2)CC(=O)[C@H](C)/C=C(\C)[C@@H](O)[C@@H](OC)C(=O)[C@H](C)C[C@H](C)/C=C/C=C/C=C/1C [rapamycin, reference compound]
Competition of PAL probe interaction with FKBP12 (rapamycin 10 µM pretreatment, purified and crude probes 10 µM): prevented interaction with the PAL probes

Nonspecific labeling of FKBP12 (crude linker, 10 and 40 µM, negative control): not seen
SMILES: C#CCCC1(CC[C@H](NC(=O)NCCCCCCNC(=O)NCCN)C(N)=O)N=N1 [Compound 7, (S)-16-amino-2-(2-(3-(but-3-yn-1-yl)-3H-diazirin-3-yl)ethyl)-4,13-dioxo-3,5,12,14-tetraazahexadecanamide]

Fluorescent intensity of the bands (crude probes 10 µM, comparison): brighter than crude 3
SMILES: C#CCCC1(CC[C@H](NC(=O)NCCCCCCNC(=O)NCCNC(=O)COc2cccc([C@@H](CCc3ccc(OC)c(OC)c3)OC(=O)[C@H]3CCCN3C(=O)C(=O)C(C)(C)CC)c2)C(N)=O)N=N1.O=C(O)C(F)(F)F [Compound 6]

Labeling of FKBP12 in dilution series (8-point, 5-fold dilution series, UV irradiated): Dose-dependent labeling
SMILES: C#CCCC1(CC[C@H](NC(=O)NCCCCCCNC(=O)NCCNC(=O)COc2cccc([C@@H](CCc3ccc(OC)c(OC)c3)OC(=O)[C@@H]3CCCCN3C(=O)C(=O)C(C)(C)CC)c2)C(N)=O)N=N1.O=C(O)C(F)(F)F [Compound 3]
